We go through one molecule from patent publication US20160158317A1, “Antimicrobial Peptide Variants and Polynucleotides Encoding Same” (Adenium Biotech A/S, priority 2010, published 2016).

Where a SMILES comes first, the peptide text is derived from it. Bridges are numbered along the chain shown (N, C = ends).

Data set [1] relates to E. coli ATCC 10536. The data set can be described thus: Plate assay screening of variants expressed in S. cerevisiae, overlaid with target organism in presence of horse blood or serum. Format: cell-based, Escherichia coli. To be noted: 2.5% blood, 5% blood or 5% serum. The source says: Several strategies were used for variant generation of the polynucleotide of SEQ ID NO:1. The resulting libraries were cloned and expressed in S. cerevisiae. Transformed clones were screened on a plate assay containing growth media supplemented with 1.5% galactose and 0.5% glucose and either horse blood (2.5-5%) or serum (5%), overlayed with the target organism, E. coli ATCC 10536 (See Raventos et al., 2005, Comb Chem High Throughput Screen. 8:219-33).
Approximately, 300 Saccharomyces cerevisiae colonies expressing arenicin variants were spread on screening plates containing either horse blood (2.5% or 5%) or 5% horse serum (see composition of the plates below). Plates were incubated 3 hours at 30° C. to allow them to dry. Next, 25 ml overlay temperate at 42° C. was added to the plates. After the media had solidified, the plates were incubated 3 days at 30° C.
On day 4, plates were overlayed with pre-warmed media at 42° C. containing either 2.5% or 5% horse blood or 5% horse serum and the target bacteria, E. coli ATCC 10536 (see below for details on media composition). After the overlay solidified, plates were incubated 16 hours at 37° C. Next day, plates were colored by adding 10 ml of 1.5 mM MTT to the plates and incubated at room temperature for 30 minutes. Clones giving rise to clearing zones were picked and sequenced. […]

Data set [2] can be described thus: Determination of the protein binding (90% serum, 30 kDa filter, HPLC). The data set is classed as in vitro ADME. To be noted: purified peptide mixed with 90% serum, 30 kDa filter, HPLC; read-out: Protein binding (%) (converted). The procedure:
Protein binding assays were performed as follows. The purified peptides were mixed with 90% serum and centrifuged through a 30 kDa filter. The ultra-filtrate and the non filtrated serum samples were quantified by HPLC measurements and the protein binding was subsequently calculated.

Consider `CC(C)[C@@H]1NC(=O)CNC(=O)[C@H](CC(N)=O)NC(=O)[C@H](CCCNC(=N)N)NC(=O)[C@H](Cc2ccc(O)cc2)NC(=O)[C@H](C(C)C)NC(=O)[C@@H]2CSSC[C@H](NC(=O)[C@H](C(C)C)NC(=O)[C@H](CCCNC(=N)N)NC1=O)C(=O)N[C@@H](Cc1ccc(O)cc1)C(=O)N[C@@H](CCCNC(=N)N)C(=O)N[C@@H](CCCNC(=N)N)C(=O)N[C@H](C(=O)N[C@@H](CC(N)=O)C(=O)O)CSSC[C@H](NC(=O)[C@H](Cc1ccccc1)NC(=O)CN)C(=O)N[C@@H](Cc1c[nH]c3ccccc13)C(=O)N[C@@H](Cc1ccc(O)cc1)C(=O)N[C@@H](C(C)C)C(=O)N2` [SEQ ID NO: 2, reference compound] (H-GFCWYVCVYRNGVRVCYRRCN-OH; disulfide 3-20, 7-16), for which the “antimicrobial activity in plate assay (clearing zones)” value in data set [1] is given as “fully inhibited”. Besides, the fraction unbound in data set [2] was 0.005.
